B1: M-CSF: Recombinant human M-CSF, produces macrophage 2 (Mφ2) (protein, UniProt P09603 33-554, looked up)
Macrophage colony-stimulating …: EEVSEYCSHMIGSGHLQSLQRLIDSQMETSCQITFEFVDQEQLKDPVCYLKKAFLLVQDIMEDTMRFRDNTPNAIAIVQLQELSLRLKSCFTKDYEEHDKACVRTFYETPLQLLEKVKNVFNETKNLLDKDWNIFSKNCNNSFAECSSQDVVTKPDCNCLYPKAIPSSDPASVSPHQPLAPSMAPVAGLTWEDSEGTEGSSLLPGEQPLHTVDPGSAKQRPPRSTCQSFEPPETPVVKDSTIGGSPQPRPSVGAFNPGMEDILDSAMGTNWVPEEASGEASEIPVPQGTELSPSRPGGGSMQTEPARPSNFLSASSPLPASAKGQQPADVTGTALPRVGPVRPTGQDWNHTPQKTDHPSALLRDPPEPGSPRISSLRPQGLSNPSTLSAQPQLSRSHSSGSVLPLGELEGRRSTRDRRSPAEPEGGPASEGAARPLPRFNSVPLTDTGHERQSEGSFSPQLQESVFHLLVPSVILVLLAVGGLLFYRWRRRSHQEPQRADSPLEQPEGSPLTQDDRQVELPV

Tests used:
monocytes [1] = assay: Cytokine multiplex analysis of supernatants of differentiated monocytes; type: cell-based, human; design: GM-CSF release / MIP-1α release / MIP-1β release / MIG release / RANTES release / MCP-1 release / IL-2R release / VEGF release / G-CSF release / HGF release / FGF-Basic release / IL-4 release / IL-7 release / IFN-α release / IFN-γ release: unit not given here; details: for FGF-Basic release / G-CSF release / GM-CSF release / HGF release / IFN-α release / IFN-γ release / IL-2R release / IL-4 release / IL-7 release / MCP-1 release / MIG release / MIP-1α release / MIP-1β release / RANTES release / VEGF release: supernatant, monocytes differentiated 6 days, Mean ± SEM
Text: (§1) This study was approved by the Institutional Human Subject's Review Board (City of Hope National Medical Center). Peripheral blood mononuclear cells (PBMCs) were isolated from citrated blood by centrifugation over Ficoll-Paque Plus (GE healthcare biosciences, Pittsburgh, Pa., USA) density gradient. Monocytes were separated using EasySep® Human Monocyte Enrichment Kit (StemCell Technologies Inc, Vancouver, Canada) from PBMCs. The purified monocytes were stained with anti-CD14-FITC and checked by using flow cytometry FACSCanton II. Monocytes with >95% purity were suspended at 1×10^6 cells/mL in RPMI 1640 medium supplement with 10% FBS (FBS contained <5 pg/100 mL LPS).
(§2) After isolation of monocytes as described in the examples above, monocytes were treated with serial dose of LL-37 (0.625 μM, 1.25 μM, 2.5 μM, 5 μM, or 10 μM) for differentiation for 3 days, 6 days, 14 days or more. After incubating for 6 days, cultures were fed every 2 days by removing half of the supernatant and adding fresh medium. For macrophage differentiation, monocytes were treated with medium only (Falzoni et al. 1995), with 100 ng/mL LPS (Palucka et al. 1999), 10 ng/mL GM-CSF (macrophage 1, Mφ1), or 50 ng/mL M-CSF (macrophage 2, Mφ2) for 6 days (Verreck et al. 2004). Monocyte-derived DCs were generated with 1,000 U/mL GM-CSF and 500 units/mL IL-4 (Verreck et al. 2004) or GM-CSF and 1000 U/mL IFNα (Tosello et al. 2009). Osteoclasts were differentiated from monocytes in the presence of RANKL and M-CSF (both at 25 ng/mL) (Sorensen et al. 2007).
Fresh monocytes were plated at 1×10^6 cells/mL in RPMI 1640 medium containing 10% FBS in 48-well plates and incubated with medium only, LL-37, LPS, GM-CSF, M-CSF, M-CSF/RANKL for 6 days, or/and 14 days and 21 days. Supernatant was collected and analyzed using the Human Cytokine 30-Plex antibody bead kit from Biosource International Inc., including IL-1-β, IL-1 ra, IL-2, IL-2R, IL-4, IL-5, IL-6, IL-7, IL-8, IL-10, IL-12, IL-13, IL-15, IL-17, TNFα, IFNα, IFNγ, G-CSF, GM-CSF, MIP-1α, MIP-1β, MIG, RANTES, eotaxin, MCP-1, IP-10, VEGF, HGF, FGF-basic, and […]. Cytokine concentrations were calculated using Bio-Plex Manager 3.0 software with an eight-parameter, curve-fitting algorithm applied for standard curve calculations (Zhang et al. 2008b).

monocytes [2] = assay: Monocyte differentiation and survival (morphology, cell number); type: cell-based, human
Text: as §1
Negatively isolated monocytes at the concentration of 1×10^6/mL were incubated in […] medium with 10% FBS in the presence or absence of LL-37. […] The maximum effect occurred at the dose of 5 μM LL-37 after which higher doses (≧10 μM) led to decreased cell numbers due to toxicity of LL-37 >10 μM (Zhang et al. 2008a; Johansson et al. 1998). After 14 days, the cell number of untreated controls decreased further, but the LL-37-differentiated monocytes survived with an apparent further increase in the diameter of the round adherent cells. […] There was no evidence of cell-cell fusion in the creation of giant cells. Together these analyses indicate that LL-37 can progressively differentiate monocytes into large round adherent cells at early times with giant cells and irregular shaped cells appearing at later times.
as §2
Monocytes were plated in culture media and treated with LL-37 (dose shown in the figures), LPS (100 ng/mL), GM-CSF (10 ng/mL), M-CSF (50 ng/mL), GM-CSF (1,000 U/mL)/IL-4 (500 units/mL), GM-CSF (1,000 U/mL)/IFNα (1,000 U/mL), or MCSF/RANKL (both at 25 ng/mL) and photographed with the Leica DMI 3000B (Leica Microsystems Inc, Bonnockburn, Ill. 60015) inverted microscope.

monocytes [3] = assay: Bone resorption assay on BioCoat Osteologic Discs (phase contrast, SEM, von Kossa); type: cell-based, human
Experimental: The resorbing activity was evaluated by using BioCoat™ Osteologic™ Discs purchased from BD Biosciences as a mineral matter in 24-well plate. […] The plates were washed by rinsing distilled water and pit formation was observed by light microscopy (Yuasa et al. 2007) and scanning electron microscopy (SEM). […]
BioCoat™ Osteologic™ Discs fixed in 2.5% glutaraldehyde in 0.1 M phosphate buffer, pH 7.2 (buffer A) for 1 hour from bone resorption assay were washed three times in buffer A, postfixed with 1% osmium tetroxide in buffer A, then dehydrated in graded ethanol. The 100% ethanol solution was then replaced by propylene oxide, and the cells were embedded in Eponate. Thin sections were stained with uranyl acetate and lead citrate and examined with a FEI TECNAI G2 electron microscope.
Discs were photographed using phase contrast microscopy (magnification 200×).

monocytes [4] = assay: Phagocytosis of fluorescent labeled latex beads; type: cell-based, human; details: 6-day differentiated cells, beads 1:500, 1 hour at 37° C.
Experimental: 6-day LL-37-, medium-, LPS-, GM-CSF-, and M-CSF-differentiated monocytes (1×10^6/mL) in tissue culture medium supplemented with 10% FBS in a 24-well plate were mixed with fluorescent labeled latex beads at a multiplicity ratio of 1:500, and incubated for 1 hour at 37° C. After being washed three times, cells were analyzed using FACSCanton II and Flowjo software.

monocytes [5] = assay: Flow cytometry of cell surface markers; type: cell-based, human; details: 6 days
Text: For cell surface staining, cells were washed with PBS, blocked with 10% human serum in PBS, stained with isotype controls and antibodies described in the figures, washed 3 times with 1% BSA PBS, and analyzed with a FACSCanton II. For intracellular staining, cells were washed with PBS, fixed with 1% paraformaldehyde in PBS, permeabilized in PBS buffer containing 0.1% saponin (Sigma-Aldrich) and 2% BSA, and stained with primary isotype controls and antibodies shown in the figures. After washing with PBS containing 1% BSA and 0.1% saponin, cells were stained with secondary Alexa 488 conjugated antibodies. Stained cells were assessed with a FACSCanton II cytometer, and analyzed using Flowjo software.

monocytes [6] = details: cited from earlier work

Row | Molecule | FGF-Basic release (monocytes [1]) | G-CSF release (monocytes [1]) | GM-CSF release (monocytes [1]) | HGF release (monocytes [1]) | IFN-α release (monocytes [1]) | IFN-γ release (monocytes [1]) | IL-2R release (monocytes [1]) | IL-4 release (monocytes [1]) | IL-7 release (monocytes [1]) | MCP-1 release (monocytes [1]) | MIG release (monocytes [1]) | MIP-1α release (monocytes [1]) | MIP-1β release (monocytes [1]) | RANTES release (monocytes [1]) | VEGF release (monocytes [1]) | further results
1 | LL-37 | 10.28 ± 0.66 | 51.79 ± 3.38 | 3.96 ± 0.30 | 772.94 ± 126.71 | 9.93 ± 0.14 | 12.13 ± 0.88 | 32.38 ± 7.04 | 7.16 ± 0.59 | 11.93 ± 1.96 | 7720.3 ± 972.2 | 7.16 ± 1.31 | 53.17 ± 12.97 | 72.41 ± 9.86 | 10.24 ± 3.87 | 3.88 ± 0.41 | IL-1ra, IL-10, IL-12, IP-10, GM-CSF production in response to LPS (monocytes [1]; 6-day cells, 100 ng/mL LPS 18 hours, versus M-CSF/RANKL-differentiated monocytes): increased production; IL-1ra release versus other macrophage lineages (monocytes [1]; 6 days): highest levels; IL-1β release versus other macrophage lineages (monocytes [1]; 6 days): lowest level; IL-6 release versus macrophages generated by the other methods (monocytes [1]; 6 days): significantly less; IP-10 release versus macrophages generated by the other methods (monocytes [1]; 6 days): increased; IL-1ra release versus osteoclasts (monocytes [1]; all time points analyzed): higher levels; IL-1β, IL-6, MCP-1 release versus osteoclasts (monocytes [1]; all time points analyzed): lower levels; doses that led to decreased cell numbers (monocytes [2]): ≥ 10 µM; cell number versus untreated controls (monocytes [2]; 5 μM, 6 days): significantly higher than untreated controls; cell morphology (monocytes [2]; 6 days of treatment): differentiated into large round adherent cells; survival in terms of cell numbers (monocytes [2]; after 28 days, versus M-CSF/RANKL-derived osteoclasts): survive better than M-CSF/RANKL-derived osteoclasts; dose of maximum effect (monocytes [2]; monocyte differentiation and cell number): 5 µM; structures formed on Osteologic Discs (monocytes [3]; 3 weeks, cells removed by bleach, LL-37 5 μM, M-CSF/RANKL both 25 ng/mL): formed refractile specks on the discs instead of classical absorption pits; von Kossa staining of granules (mineralization) (monocytes [3]; 5 weeks of co-culture): positive von Kossa staining; phagocytic function (monocytes [4]): retain their phagocytic function; expression of CD163, DC-SIGN, CD14 versus other macrophage lineages (monocytes [5]): lower levels; toxicity of LL-37 (monocytes [6]): > 10 µM
2 | GM-CSF: Recombinant human GM-CSF, produces macrophage 1 (Mφ1) [reference compound] | 10.85 ± 0.22 | 74.85 ± 2.60 |  | 505.18 ± 118.32 | 14.33 ± 1.27 | 13.5 ± 0.47 | 47.16 ± 1.23 | 11.82 ± 0.98 | 26.89 ± 0.16 | 15362.1 ± 7902.6 | 17.21 ± 1.30 | 72.20 ± 6.18 | 70.42 ± 19.71 | 5.42 ± 1.85 | 15.88 ± 2.99 | 
3 | B1 | 11.54 ± 0.31 | 75.71 ± 5.78 | 25.2 ± 5.51 | 664.33 ± 112.85 | 19.83 ± 1.19 | 14.67 ± 1.06 | 44.62 ± 4.89 | 11.07 ± 0.95 | 24.83 ± 1.68 | 34236.5 ± 1606.8 | 15.39 ± 2.01 | 41.62 ± 2.63 | 47.26 ± 1.46 | 10.19 ± 1.38 | 22.12 ± 1.39 | 
